From PubChem BioAssay (NCI)
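Values below derive from 48-hour exposures of cells grown in 96-well plates, with endpoints linearly interpolated between the two concentrations bracketing the appropriate inhibition level. Here, GI50 denotes the concentration required for 50% inhibition of growth. TGI is the concentration that stops growth completely.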

Tests used:
Assay in all cases: NCI tumour cell line growth inhibition, 48 h
MDA-MB-435 = tested on: MDA-MB-435
NCI/ADR-RES ovarian = tested on: NCI/ADR-RES ovarian
DU-145 prostate = tested on: DU-145 prostate
MCF7 breast = tested on: MCF7 breast
BT-549 breast = tested on: BT-549 breast
T-47D breast = tested on: T-47D breast

Row | SMILES | TGI (MDA-MB-435) [µM] | TGI (NCI/ADR-RES ovarian) [µM] | TGI (DU-145 prostate) [µM] | TGI (MCF7 breast) [µM] | TGI (BT-549 breast) [µM] | TGI (T-47D breast) [µM] | GI50 (MDA-MB-435) [µM] | GI50 (NCI/ADR-RES ovarian) [µM] | GI50 (DU-145 prostate) [µM] | GI50 (MCF7 breast) [µM] | GI50 (BT-549 breast) [µM] | GI50 (T-47D breast) [µM]
1 | N=Nc1c(OC(=O)Nc2ccccc2)[nH]c2ccccc12 | 45.1 | > 100 | 22.7 | 38.8 | 27.6 | 37.7 |  |  |  |  |  | 
2 | COc1cc(N2CCN(C(C)C)CC2)ccc1Nc1nc(Nc2cccc3ncccc23)c2cc[nH]c2n1 | > 25 | > 25 | 24.6 | > 25 | 13.6 | 13.6 | 5.47 | 8.45 | 6.55 | 1.3 | 4.75 | 3.8
3 | CC(C)(C)[Si](C)(C)OCC1CCC(n2cnc3c(=O)[nH]cnc32)O1 (stereo not given) | > 100 | > 100 | > 100 | > 100 |  | > 100 |  |  |  |  |  | 
4 | CCNC(C)(C)C(SS)c1ccc(Br)cc1 (stereo not given) | > 100 | > 100 | > 100 | > 100 | > 100 | 93.6 |  |  |  |  |  | 
5 | COc1ccc(C[n+]2c3ccccc3n3c4ccc(N)cc4ccc32)c(OC)c1OC | 13.5 | > 100 | 78.1 | 26.1 | 16.5 | 7.03 | 2.92 | > 100 | 6.42 | 1.11 | 2.42 | 1.42
6 | Cc1c(C)c2c(c(C)c1NC(=O)/C=C\C(=O)O)CCC(C)(CCCC(C)CCCC(C)CCCC(C)C)O2 (stereo not given) | 3.44 | 7.46 | 3.05 | 5.32 | 2.69 | 4.78 | 1.67 | 2.54 | 1.69 | 2.2 | 1.35 | 2.02
7 | Cc1oc2nc[nH]c(=O)c2c1C(=O)/C=C/c1ccc(Cl)cc1 | 8.64 | 21 | 11.3 | 12.3 | 6.55 | 7.82 | 2.4 | 2.44 | 2.82 | 1.39 | 2.24 | 1.72
8 | Cc1cc2cccnc2c2ncccc12 | 21.9 | 1.84 | > 100 | > 100 | 41.9 | 21.3 | 2.15 | 0.315 | 1.02 | 2.62 | 2.67 | 3.32
9 | O=C(/C=C1\C(=O)N(Cc2ccc([N+](=O)[O-])cc2)c2ccccc21)c1ccc(OCCN2CCCCC2)cc1 | 2.52 | 5.76 | 2.93 | 4.1 | 3 |  | 1.2 | 2.04 | 1.56 | 1.43 | 1.64 | 
10 | CN1CCN(CCCOc2cccc3nc(Nc4ccc(Cl)c(F)c4)ccc23)CC1 | 3.14 | 3.77 | 3.19 | 2.77 | 7.73 | 4.02 | 1.61 | 1.8 | 1.75 | 1.31 | 2.4 | 1.78
11 | O=c1oc2cc(N=Cc3ccccc3Cl)ccc2c2ccccc12 | > 100 | > 100 | > 100 | > 100 | > 100 | > 100 |  |  |  |  |  | 
